# Test results as given in US8609695B2, “Methods of treating and/or suppressing insulin resistance” (Endorecherche, Inc., priority 1999, dated 2013).
# Test system: intact female rats
# Test: 6-month treatment, fat accumulation in intact female rats receiving or not LHRH-A (Example 5)
# Type: in vivo, Rattus norvegicus
# Settings: 6-month LHRH-A treatment
# Protocol: The objective of this study is to determine the effect on fat of treatment with EM-652.HCl and dehydroepiandrosterone (DHEA) in intact female rats receiving or not a luteinizing hormone releasing hormone agonist (LHRH-A, LHRH ethylamide diacetate). For this purpose, intact female rats, treated or not with LHRH-A (2 μg/rat), received daily administration of EM-652.HCl (2.5 mg/kg) and DHEA (100 mg/kg), alone or in combination, for 6 months. EM-652.HCl was administered orally, DHEA was applied topically while LHRH-A was injected subcutaneously. All treatments were administered once daily.
# One hundred twenty rats were separated into 8 groups of 15 animals for conduct of the study outlined below:
# The LHRH-A is available in solution at a concentration of 1.0 mg/ml. We diluted this concentrated solution (in order to obtain a final concentration of 0.004 mg/ml) by using the following vehicle: 0.3% Sodium Chloride and 0.25% Sodium Phosphate monobasic, monohydrate in water. The sodium hydroxide (aqueous) was used to adjust the pH between 5.6-6.2.
# Dosing suspensions/solutions were prepared every two weeks according to the most recent body weight (group mean) except for the LHRH-A solution. For EM-652.HCl administered orally, the vehicle (0.4% methylcellulose) was added to the tested compound, previously weighed into a glass bottle, at least 48 hours prior to the first dosing day. To ensure the homogeneity of dosing suspension, it was stirred at least 48 hours at 2 to 8 C. Dosing suspension was kept at 2 to 8 C. For DHEA solution applied topically, the ethanol was added to DHEA and the mix were agitated until dissolution of DHEA. Then, the polypropylene glycol was added and the solution agitated until homogeneity. Dosing solution was kept at 2 to 8 C. For LHRH-A solution injected subcutaneously, a dilution of the concentrated solution using the appropriate vehicle was prepared every month. Dosing solution was kept at 2 to 8 C.
# The administration of tested compounds or vehicle was given from on Study Day 1 of the protocol. The tested compounds were given as suspension in 0.4% methylcellulose by oral gavage (0.5 ml/gavage/rat) once daily or were applied topically in 50% ethanol-50% propylene glycol (0.5 ml/application/rat) once daily. Rats from groups 5 to 8 received also the LHRH-A once daily by subcutaneous injection (0.5 ml/injection/rat). Rats not receiving a tested compound orally and/or topically received the appropriate vehicle alone.
# Body composition was measured on whole skeleton of animal under Isoflurane-induced anesthesia using dual energy x-ray absorptiometry (DEXA; QDR 4500A, Hologic) during the acclimation period and after 6 months of treatment.
substance,measurement,value
LHRH ethylamide diacetate [LHRH-A],increase of the percentage of body fat,58%
